Some test systems named below: ACHN; OVCAR-3; DU-145; SF-268; Malme-3M; HCT-116; M14; CCRF-CEM; SF-539; RXF 393; MDA-MB-435; COLO 205; SF-295; UACC-62; PC-3; HOP-92; HCC 2998; MDA-N; OVCAR-4; SK-OV-3.
Common to all, as to test: NCI tumour cell line growth inhibition, 48 h

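Briefly, cells in 96-well plates were exposed to five compound concentrations for 48 h, and endpoints were estimated by linear interpolation. GI50 is the concentration that inhibits growth by half.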 Active and inactive are the calls of the source. No stated cut-off is given here; in the data, active = GI50 up to about 1.1 µM and inactive = higher. Some results are limits rather than exact numbers.

In the case of `CCOC1=C(c2ccccc2)N2CCCCC2O1` (stereo not given), the GI50 with ACHN is 4.68 µM (inactive); in the assay with OVCAR-3, 3.79 µM (inactive); in the assay on DU-145, 4.19 µM (inactive); in the assay with SF-268 it was 4.34 µM (inactive); in the assay with Malme-3M it was 5.7 µM (inactive); in the assay on HCT-116 it was 2.88 µM (inactive). Further, the GI50 in the assay with M14 was 3.46 µM (inactive); in the assay with CCRF-CEM, 2.94 µM (inactive); in the assay on SF-539, 9.29 µM (inactive); in the assay on RXF 393, 7.89 µM (inactive); with MDA-MB-435, 3.25 µM (inactive); in the assay on COLO 205, 2.22 µM (inactive). For the same molecule, the GI50 in the assay with SF-295 is 3.26 µM (inactive); with UACC-62, 3.48 µM (inactive); with PC-3, 2.61 µM (inactive); in the assay on HOP-92, 2.21 µM (inactive); in the assay with HCC 2998, 3.12 µM (inactive); with MDA-N, 4.03 µM (inactive).
Regarding `O=C(/C=C/c1csc(-c2ccccc2)n1)NCc1ccc(C(=O)NCCc2ccccc2)cc1`, the GI50 in the assay with ACHN is 19.3 µM (inactive); in the assay on OVCAR-3, 63.8 µM (inactive); in the assay with DU-145, 88.5 µM (inactive); in the assay with SF-268 it was 5.94 µM (inactive); with Malme-3M it was 24.3 µM (inactive); in the assay with HCT-116, 26.9 µM (inactive). Also, the GI50 was 39.8 µM (inactive) in the assay on M14; 24.5 µM (inactive) in the assay on OVCAR-4; > 100 µM (inactive) in the assay on CCRF-CEM; 2.7 µM (inactive) with RXF 393; > 100 µM (inactive) in the assay on MDA-MB-435; 42.1 µM (inactive) in the assay with COLO 205. The GI50 in the assay on SF-295 is 9.73 µM (inactive); in the assay with UACC-62, 31.8 µM (inactive); with PC-3, 49.4 µM (inactive); in the assay with HOP-92, 6.85 µM (inactive); in the assay on HCC 2998 it was > 100 µM (inactive); in the assay with MDA-N it was > 100 µM (inactive). Further, the GI50 in the assay with SK-OV-3 is 12.3 µM (inactive).
On to `O=C(Cn1c2ccc(Br)cc2c2nc3ccccc3nc21)NNC(=S)NC1CCCCC1`, for which the GI50 with ACHN was 16 µM (inactive); in the assay on OVCAR-3 it was 10.8 µM (inactive); in the assay on DU-145, 15.5 µM (inactive); with SF-268, 16.7 µM (inactive); in the assay on Malme-3M, 19.7 µM (inactive); with HCT-116 it was 13.9 µM (inactive). The GI50 with M14 is 11.9 µM (inactive); in the assay on OVCAR-4, 12.6 µM (inactive); in the assay with CCRF-CEM, 0.794 µM (active); in the assay on RXF 393 it was 6.89 µM (inactive); in the assay with MDA-MB-435, 13.8 µM (inactive); in the assay on COLO 205, 13.2 µM (inactive). Also, the GI50 in the assay on SF-295 is 13.1 µM (inactive); in the assay on UACC-62, 15.6 µM (inactive); in the assay with PC-3, 11.7 µM (inactive); with HOP-92 it was 11.8 µM (inactive); in the assay with HCC 2998 it was 17.6 µM (inactive); in the assay with MDA-N, 16.8 µM (inactive). For the same molecule, in the assay on SK-OV-3, the GI50 is 21.7 µM (inactive).
Take `Cn1/c(=N\c2ccccc2[N+](=O)[O-])sc2ccccc21`: the GI50 with ACHN was 61.5 µM (inactive); in the assay with DU-145 it was > 100 µM (inactive); in the assay on SF-268, 70.5 µM (inactive); with Malme-3M, > 100 µM (inactive); in the assay on HCT-116 it was 72.8 µM (inactive); with OVCAR-4 it was 16.1 µM (inactive). For the same molecule, the GI50 was > 100 µM (inactive) in the assay with CCRF-CEM; 28.2 µM (inactive) in the assay with SF-539; 30.1 µM (inactive) in the assay on RXF 393; > 100 µM (inactive) in the assay with MDA-MB-435; > 100 µM (inactive) with COLO 205; 42.6 µM (inactive) in the assay on SF-295. In addition, the GI50 with UACC-62 was 30.5 µM (inactive); in the assay on PC-3 it was 66.1 µM (inactive); with HOP-92, 14.7 µM (inactive); in the assay with HCC 2998 it was 30.3 µM (inactive); in the assay on MDA-N, > 100 µM (inactive); in the assay with SK-OV-3 it was 23 µM (inactive).
For `N#Cc1c(-c2ccc(Cl)cc2)c2c(n(C3OC(CO)C(O)C(O)C3O)c1=S)CCCC2` (stereo not given), the GI50 with ACHN was 79.8 µM (inactive); in the assay with OVCAR-3, 69.8 µM (inactive); with DU-145, > 100 µM (inactive); in the assay with SF-268, > 100 µM (inactive); in the assay on Malme-3M, 50.8 µM (inactive); with HCT-116, 53.1 µM (inactive). Further, the GI50 in the assay on M14 was > 100 µM (inactive); in the assay with OVCAR-4, 82.2 µM (inactive); in the assay on CCRF-CEM it was 49.3 µM (inactive); with SF-539 it was > 100 µM (inactive); with RXF 393 it was > 10 µM (inactive); in the assay with MDA-MB-435, 54.8 µM (inactive). Also, the GI50 was 38.3 µM (inactive) with COLO 205; > 100 µM (inactive) in the assay on SF-295; 56.2 µM (inactive) in the assay on PC-3; 46 µM (inactive) in the assay on HOP-92; > 100 µM (inactive) in the assay with HCC 2998; 44.2 µM (inactive) in the assay with MDA-N.
Take `CC(=O)O[C@@H](c1nccn1Cc1ccccc1)[C@H]1OC(C)(C)O[C@@H]1[C@H]1COC(C)(C)O1`: the GI50 in the assay with ACHN, with OVCAR-3, with DU-145, in the assay on SF-268, in the assay on Malme-3M and in the assay with HCT-116 was > 100 µM (inactive) in each case. Besides, the GI50 with OVCAR-4, in the assay with CCRF-CEM, in the assay on SF-539, with RXF 393, in the assay on MDA-MB-435 and with COLO 205 was > 100 µM (inactive) each time. Further, the GI50 with SF-295, in the assay on UACC-62, with PC-3, in the assay on HOP-92, with HCC 2998 and in the assay with MDA-N was > 100 µM (inactive) throughout.
Turning to `COC(=O)C1C/C(=C/N(C)C)C(=S)N1` (stereo not given), the GI50 in the assay with ACHN, in the assay on OVCAR-3, in the assay on DU-145, with SF-268, in the assay with Malme-3M and in the assay on HCT-116 was > 100 µM (inactive) in each case. The GI50 in the assay with M14, in the assay on OVCAR-4, with CCRF-CEM, in the assay on RXF 393, in the assay with MDA-MB-435 and in the assay with COLO 205 was > 100 µM (inactive) each time. The GI50 in the assay with SF-295 was > 100 µM (inactive); in the assay with UACC-62 it was > 100 µM (inactive); in the assay on PC-3, > 100 µM (inactive); in the assay with HOP-92, 54.1 µM (inactive); in the assay with HCC 2998 it was > 100 µM (inactive); in the assay on MDA-N, > 100 µM (inactive). The GI50 in the assay on SK-OV-3 was > 100 µM (inactive).
Turning to `O=C(O)c1ccccc1/C=C1/Cc2ccc3c(c2C1=O)CCC3`, the GI50 with ACHN is 37.7 µM (inactive); in the assay on OVCAR-3, 31.8 µM (inactive); in the assay on DU-145 it was 68.9 µM (inactive); in the assay with SF-268 it was 36.1 µM (inactive); in the assay on Malme-3M, 50.8 µM (inactive); with HCT-116, 30.7 µM (inactive). The GI50 in the assay on M14 is 35.5 µM (inactive); in the assay with OVCAR-4, 29.8 µM (inactive); in the assay on CCRF-CEM, 38.9 µM (inactive); with SF-539, 23.9 µM (inactive); with RXF 393, 38.2 µM (inactive); with MDA-MB-435 it was 26.3 µM (inactive). For the same molecule, the GI50 in the assay on COLO 205 was 19.1 µM (inactive); in the assay with SF-295 it was 42.4 µM (inactive); in the assay with UACC-62, 38.9 µM (inactive); in the assay on PC-3, 42.9 µM (inactive); in the assay on HOP-92, 24.9 µM (inactive); in the assay on HCC 2998, 30.5 µM (inactive). Further, the GI50 in the assay on MDA-N was 29.6 µM (inactive).
Take `COc1ccc2c(c1OC(C)=O)C1=CC(=O)CCC13CCNC3C2` (stereo not given): the GI50 in the assay on ACHN, in the assay with OVCAR-3, in the assay on DU-145, with SF-268, in the assay on Malme-3M and with HCT-116 was > 100 µM (inactive) each time. For the same molecule, the GI50 in the assay on M14, with OVCAR-4, in the assay on CCRF-CEM, in the assay on RXF 393, with MDA-MB-435 and in the assay on COLO 205 was > 100 µM (inactive) throughout. The GI50 in the assay with SF-295, in the assay with UACC-62, in the assay on PC-3, in the assay with HOP-92, in the assay with HCC 2998 and with MDA-N was > 100 µM (inactive) each time. For the same molecule, the GI50 with SK-OV-3 was > 100 µM (inactive).
For `CC(=O)Nc1ccc2c(c1)/C(=N/c1ccc(C(=O)O)cc1)c1ccccc1-2`, the GI50 is > 100 µM (inactive) in the assay with ACHN; 99.8 µM (inactive) in the assay on OVCAR-3; > 100 µM (inactive) with DU-145; > 100 µM (inactive) with SF-268; > 100 µM (inactive) in the assay on Malme-3M; > 100 µM (inactive) with HCT-116. The GI50 is 99.1 µM (inactive) in the assay on M14; 41 µM (inactive) in the assay with OVCAR-4; 26.4 µM (inactive) in the assay on CCRF-CEM; > 100 µM (inactive) in the assay on RXF 393; > 100 µM (inactive) with MDA-MB-435; 57.3 µM (inactive) in the assay on COLO 205. Besides, the GI50 was 96.4 µM (inactive) in the assay with SF-295; 91.4 µM (inactive) in the assay with UACC-62; 83.6 µM (inactive) in the assay with PC-3; 37.9 µM (inactive) with HOP-92; > 100 µM (inactive) with HCC 2998; > 100 µM (inactive) with MDA-N. In addition, the GI50 in the assay with SK-OV-3 is > 100 µM (inactive).
As for `CCOC(=O)/C(C(=S)NCc1ccccc1)=C(/N)N1CCCC1`, the GI50 in the assay on ACHN, in the assay on OVCAR-3, with DU-145, with SF-268, in the assay on Malme-3M and with HCT-116 was > 100 µM (inactive) in each case. For the same molecule, the GI50 with M14, in the assay with OVCAR-4, in the assay with CCRF-CEM, in the assay on SF-539, in the assay on RXF 393 and with MDA-MB-435 was > 100 µM (inactive) in each case. The GI50 in the assay with COLO 205, with SF-295, in the assay on UACC-62, with PC-3, with HOP-92 and in the assay with HCC 2998 was > 100 µM (inactive) in each case. Also, the GI50 in the assay on MDA-N was > 100 µM (inactive).

Values taken from ChEMBL document CHEMBL1201862, “PubChem BioAssay data set” (2004).
